Experimental data taken from patent US20030069220A1, “METHOD FOR MASS MEDICATION IN BIOLOGICAL ATTACKS” (priority 2001, published 2003).

Assays:
[1] = ampicillin dissolved with 95 mole-% sodium carbonate; or aqueous solution of pre-formed salt; cited from earlier work
[2] = in vivo; cited from earlier work
[3] = Dissolution of antibiotic powders (cephalosporin plus citric acid) in water, Example 1; type: physicochemical
Description: The following antibiotic powders were formed without sweeteners and flavorings by addition to clear plastic bags and by working of the bags. The mixtures were added to water in the amounts noted and the conditions of dissolution are noted, as well as the resultant pH or the formed solution. Although Example 1 describes the use of citric acid, various other constituents may be utilized as a […] (e.g., various amino acids).

Row | Compound | pH of aqueous solution [1] | absorbed by the body when ingested [2] [%] | pH of the formed solution [3] | time to form a solution [3]
1 | CC1(C)S[C@@H]2[C@H](NC(=O)[C@H](N)c3ccccc3)C(=O)N2[C@H]1C(=O)[O-].[Na+] [sodium ampicillin] | ~9.5 | – | – | –
2 | CC1(C)S[C@@H]2[C@H](NC(=O)[C@H](N)c3ccccc3)C(=O)N2[C@H]1C(=O)O [ampicillin] | 8.3 | – | – | –
3 | CC1=C(C(=O)O)N2C(=O)[C@@H](NC(=O)[C@H](N)c3ccccc3)[C@H]2SC1 [Cephalexin, αaminobenzyl-3-desacetoxycephalosporin] | – | 90 | pH of 3.3. | solution in 5 minutes
